Results published in publication PMC12321279, “Novel 4,5‐Dihydrothiazole‐Phenylpiperazine Derivatives: Synthesis, Docking Studies and Pharmacological Evaluation as Serotonergic Agents” (Chemmedchem, 2025).

Experiments:
5‐HT1A receptor [1] = molecular target: T1, 5‐HT1A receptor (Rattus norvegicus, UniProt P19327); experiment: 5‐HT1A receptor activation in the [35S]GTP‐γ‐S assay (hippocampal membranes); assay type: biochemical; conditions: [35S]GTPγS; for EC50: read-out: EC50 (95% CI, μM), 5‐HT1A receptor G‐protein stimulation
T1 construct: 80 μg of hippocampal membrane suspension (the 5‐HT1A assay); from tissue; host or cells: rat (Sprague-Dawley) hippocampus membranes
T1 sequence (P19327 1-422): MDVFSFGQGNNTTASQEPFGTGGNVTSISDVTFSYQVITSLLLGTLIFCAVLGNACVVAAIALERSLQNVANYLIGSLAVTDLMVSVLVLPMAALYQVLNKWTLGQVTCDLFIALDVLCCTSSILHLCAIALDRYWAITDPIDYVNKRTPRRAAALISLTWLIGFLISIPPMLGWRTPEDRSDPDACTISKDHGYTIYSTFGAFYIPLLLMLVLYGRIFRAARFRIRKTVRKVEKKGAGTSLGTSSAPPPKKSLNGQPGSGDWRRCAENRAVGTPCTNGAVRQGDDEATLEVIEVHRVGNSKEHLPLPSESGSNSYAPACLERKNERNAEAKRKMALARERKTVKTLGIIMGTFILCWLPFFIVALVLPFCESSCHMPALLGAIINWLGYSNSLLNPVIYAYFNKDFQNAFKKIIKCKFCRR
Experimental: Seven compound concentrations equally spaced on a log scale (10–4 M to 10–10 M) were incubated in duplicate with hippocampal membrane preparations (5μg per well) in assay buffer (50 mM Tris‐HCl, pH = 7.4, 1 mM EGTA, 3 mM MgCl2, 100 mM NaCl, and 30 μM GDP) and 0.08 nM [^35S]GTP‐γ‐S (specific activity: 1250 Ci mmole^−1, Revvity). Nonspecific binding was determined with 10μM of unlabeled GTP‐γ‐S. The final DMSO concentration in the assay was 5%. The reaction mixture was incubated for 90 min. at 30 °C on an orbital shaker set at 250 rpm. Next, the reaction mixture was deposited under vacuum with the FilterMate Harvester (Revvity, USA) onto Unifilter GF/C Plates (Revvity, MA, USA) presoaked with wash buffer (50 mM Tris‐HCl, pH = 7.4). The wells were then rapidly washed with 2 mL of wash buffer. Filter plates were dried overnight at room temperature. Once completely dry, 35 μl of MicroScint PS (Revvity, MA, USA) scintillation fluid was added to each well. Radioactivity was counted in a MicroBeta2 LumiJet scintillation counter (Revvity, MA, USA). Data were analyzed with GraphPad Prism 5.0 software (GraphPad Software, San Diego California USA, www.graphpad.com). The curves were fitted with three‐parameter non‐linear regression model.

5‐HT2A receptor [2] = molecular target: T2, 5‐HT2A receptor (Rattus norvegicus, UniProt P14842); experiment: Inhibition of 5‐HT‐evoked contractions in isolated rat ileum; design: segments (1–1.5 cm) of ileum were removed, flushed of luminal contents, and placed in Krebs solution; from tissue; host or cells: isolated rat (Sprague-Dawley) ileum segments; conditions: 5‐HT 10^−5 M, compounds 10^−8–10^−5 M; for IC50: IC50, inhibition of 5‐HT‐induced contractions in the rat ileum, contact time 10 min; for Emax: read-out: EMAX, maximal inhibitory effect on 5‐HT‐induced contractions in the rat ileum
T2 sequence (P14842 whole entry): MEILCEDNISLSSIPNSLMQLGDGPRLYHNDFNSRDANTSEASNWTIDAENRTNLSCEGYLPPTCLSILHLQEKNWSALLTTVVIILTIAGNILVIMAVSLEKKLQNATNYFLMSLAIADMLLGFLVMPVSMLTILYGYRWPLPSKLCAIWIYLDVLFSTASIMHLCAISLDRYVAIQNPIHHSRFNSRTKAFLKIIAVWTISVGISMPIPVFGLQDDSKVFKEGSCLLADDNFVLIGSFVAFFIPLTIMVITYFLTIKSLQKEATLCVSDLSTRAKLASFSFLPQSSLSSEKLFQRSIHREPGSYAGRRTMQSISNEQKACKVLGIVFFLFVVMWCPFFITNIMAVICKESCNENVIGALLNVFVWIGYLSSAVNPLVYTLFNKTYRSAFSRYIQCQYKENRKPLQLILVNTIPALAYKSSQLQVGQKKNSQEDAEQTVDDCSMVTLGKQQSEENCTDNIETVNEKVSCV
Experimental: Male rats (Sprague‐Dawley, 160–200 g; Charles River Laboratories; Calco, Italy) were manipulated and cared for in strict compliance with the principles of laboratory animal care. Experimental procedures were conducted in conformity with Italian (D.L. 26/2014) and European (directive 2010/63/EU) regulations on the protection of animals used for scientific purposes and approved by the Italian Ministry. Animal housing complied with recent pharmacological guidance.^[ [40] ^] All animals weighing 160–200 g were used after a 1‐week acclimation period (temperature 23 ± 2 °C; humidity 60%, free access to water and standard food).
The segments were prepared as previously described:^[ [41] ^] the segments were set up in such a way as to record contractions mainly from the longitudinal axis, in an organ bath containing 20 mL of Krebs solution, bubbled with 95% O2 and 5% CO2 and maintained at 37 °C. The tissues were connected to an isotonic transducer (load: 0.5 g), connected to Power Lab system (Ugo Basile, Comerio, Italy). Ileal segments were equilibrated for 60 min^[ [16] ^] followed by three repeated additions of submaximal concentration of 5‐HT (10^−5 M) in order to record stable control contractions. […] The contact time for each concentration was 10 min. The compounds were dissolved in DMSO. […] Results are expressed as mean (SEM). […] The IC50 and Emax values were calculated with the aid of a computer program (GraphPad Prism 5).

5‐HT2A receptor [3] = molecular target: T2, 5‐HT2A receptor; experiment: 5‐HT2A competition binding assay ([3H]ketanserin, frontal cortex membranes); design: from tissue; host or cells: rat (Sprague-Dawley) frontal cortex membranes; conditions: 1 nM [3H]ketanserin, 95% CI in brackets, read-out: 5‐HT2A Ki (95% CI)
5‐HT1A receptor [4] = molecular target: T1, 5‐HT1A receptor; experiment: 5‐HT1A competition binding assay ([3H]8‐OH‐DPAT, hippocampal membranes); conditions: 1 nM [3H]8‐OH‐DPAT, 95% CI in brackets, read-out: 5‐HT1A Ki (95% CI)
Experimental: (§1) Sprague‐Dawley rats were sacrificed by isoflurane overdose. Brains were rapidly removed and placed on ice. Hippocampi (for the 5‐HT1A assay) and frontal cortices (for the 5‐HT2A and 5‐HT2C assays) were dissected on a Petri dish. The tissue from 10 rats was homogenized in 30 vol. homogenization buffer (50 mM Tris–HCl, […], 1 mM EDTA, 1 mM dithiothreitol) with a handheld Teflon‐glass homogenizer. The homogenate was centrifuged at 48,000 × g at 4 °C for 15 min. The pellet was suspended and homogenized in the homogenization buffer and incubated for 10 min. at 36 °C. The centrifugation and suspension steps were repeated twice. The final pellet was homogenized in 5 vol. 50 mM Tris–HCl, pH = 7.4 buffer and stored at −80 °C for no longer than 6 months. […] For the 5‐HT2C assay, compounds were incubated in duplicate with 5 nM [^3H]mesulergine (specific activity: 80.2 Ci mmol^−1, Revvity, MA, USA) for 60 min. at 36 °C in a 50 mM Tris‐HCl (pH 7.4) buffer, supplemented with 5 mM MgCl2, 140 mM NaCl, 1 mM DTT, 1 mM CaCl2, 10 μM pargyline and 160μg of the frontal cortex membrane suspension. Non‐specific binding was determined with 10μM serotonin. The final DMSO concentration in the assay was 5%. After incubation, the reaction mixture was deposited onto Unifilter GF/C plates (Revvity, MA, USA) presoaked in 0.4% PEI (or 0.4% PEI and 0.5% Triton X‐100 for the 5‐HT2C assay) for 1 h with the FilterMate‐96 Harvester (Revvity, MA, USA). Then, each well was washed with 2 mL of 50 mM Tris–HCl (pH 7.4) buffer to separate bound ligands from free and the plates were left to dry overnight. Then, 35μl of Microscint‐20 scintillation fluid (Revvity, MA, USA) was added to each filter well and left to equilibrate for 2h. Filter‐bound radioactivity was counted in a MicroBeta2 LumiJet scintillation counter (Revvity, MA, USA). Binding curves were fitted with one site non‐linear regression. Binding affinity (pKi and Ki) for each compound was calculated from the […] values with the Cheng‐Prusoff equation from two separate experiments.

5‐HT2C receptor = molecular target: T3, 5‐HT2C receptor (Rattus norvegicus, UniProt P08909); experiment: 5‐HT2C competition binding assay ([3H]mesulergine, frontal cortex membranes); conditions: 5 nM [3H]mesulergine, 95% CI in brackets, read-out: 5‐HT2C Ki (95% CI)
T3 construct: 10 μM pargyline and 160μg of the frontal cortex membrane suspension; from tissue; host or cells: rat (Sprague-Dawley) frontal cortex membranes
T3 sequence (P08909 33-460): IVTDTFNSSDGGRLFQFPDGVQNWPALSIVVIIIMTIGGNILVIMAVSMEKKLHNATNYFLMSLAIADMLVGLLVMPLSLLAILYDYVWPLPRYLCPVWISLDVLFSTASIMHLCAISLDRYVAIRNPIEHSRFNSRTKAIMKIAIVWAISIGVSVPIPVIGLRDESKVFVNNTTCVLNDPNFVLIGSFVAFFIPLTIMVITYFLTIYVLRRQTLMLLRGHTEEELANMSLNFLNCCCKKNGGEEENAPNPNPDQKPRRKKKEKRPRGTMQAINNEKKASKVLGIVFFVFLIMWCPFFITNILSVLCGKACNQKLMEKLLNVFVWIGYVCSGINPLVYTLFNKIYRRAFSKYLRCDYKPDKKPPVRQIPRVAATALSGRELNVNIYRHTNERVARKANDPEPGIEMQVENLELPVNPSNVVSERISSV
Experimental: as §1

[5] = rat hippocampal membranes, 95% CI in brackets

| Compound | EC50 (5‐HT1A receptor [1]; [5]) [µM] | Emax (5‐HT1A receptor [1]; rat hippocampal membranes, read-out: Emax (%) ± SEM, 5‐HT1A receptor G‐protein stimulation) [%] | EMAX, maximal inhibitory effect on 5‐HT‐induced contractions in the rat ileum (5‐HT2A receptor [2]) [%] | IC50 (5‐HT2A receptor [2]) [µM] | Ki (5‐HT2A receptor [3]) [µM] | Ki (5‐HT1A receptor [4]) [µM] | Ki (5‐HT2C receptor) [µM] | Emax (%) ± SEM, 5‐HT1A receptor G‐protein stimulation (5‐HT1A receptor [1]; rat hippocampal membranes) | pEC50, 5‐HT1A receptor G‐protein stimulation (5‐HT1A receptor [1]; rat hippocampal membranes) | EC50 (95% CI, μM), 5‐HT1A receptor G‐protein stimulation (5‐HT1A receptor [1]; [5]) | agonist activity for the 5‐HT1A receptor (classification in words) (5‐HT1A receptor [1]; efficacy compared with 8‐OH‐DPAT) | Emax (5‐HT2A receptor [2]) [%] |
| --- | --- | --- | --- | --- | --- | --- | --- | --- | --- | --- | --- | --- |
| O=C(NCCCN1CCN(c2cccc(C3=NCCS3)c2)CC1)C1CC2C=CC1C2 (stereo not drawn) [FG‐14, Exo‐N‐(3‐(4‐(3‐(4,5‐dihydrothiazol‐2‐yl)phenyl)piperazin‐1‐yl)propyl) bicyclo [2.2.1] hept‐5‐ene‐2‐carboxamide] | 23.3 | 133 ± 5.7 | 22.48 | 2.59 | 0.43 | 0.34 | 0.072 |  |  |  |  |  |
| O=C1C2C3C=CC(O3)C2C(=O)N1OCCCN1CCN(c2cccc(C3=NCCS3)c2)CC1 (centres unmarked) [FG‐11, 2‐(3‐(4‐(3‐(4,5‐dihydrothiazol‐2‐yl) phenyl) piperazin‐1‐yl) propoxy)‐3a,4,7,7a‐tetrahydro‐1H‐4,7‐epoxyisoindole‐1,3(2H)‐dione] |  |  |  | 4.39 | 1.48 | 2.2 | 40.5 | No activity | No activity | No activity | do not express any agonist activity | 28.7 |
| O=C(NCCCN1CCN(c2cccc(C3=NCCS3)c2)CC1)C1CC2C=CC1C2 (stereo not drawn) [FG‐17, Endo‐N‐(3‐(4‐(3‐(4,5‐dihydrothiazol‐2‐yl)phenyl)piperazin‐1‐yl)propyl) bicyclo[2.2.1]hept‐5‐ene‐2‐carboxamide] | 21.1 |  |  | 1.25 | 6.06 | 0.823 | 1.66 | 134 ± 2.5% |  |  |  | 25 |
